Measurements published in US20260091020A1, “TREATMENT OF ACUTE CANNABINOID OVERDOSE” (Anebulo Pharmaceuticals, Inc., priority 2022, published 2026).
Like-named read-outs stand apart in the source and are kept apart here.

How the values were obtained:
[1] = Plasma PK of ANEB-001 and THC, 30 mg or 10 mg oral Compound 1 with 21 mg THC (Example 4); format: in vivo, human; conditions: for concentration at 0 h / concentration at 20 min / concentration at 40 min / concentration at 1 h / concentration at 2 h / concentration at 3 h / concentration at 4 h / concentration at 5 h / concentration at 24 h / AUC(0-t) / Cmax / Tmax: human, in vivo; for concentration at 0 h: 00H00M; for concentration at 20 min: 00H20M; for concentration at 40 min: 00H40M; for concentration at 1 h: 01H00M; for concentration at 2 h: 02H00M; for concentration at 3 h: 03H00M; for concentration at 4 h: 04H00M; for concentration at 5 h: 05H00M; for concentration at 24 h: 24H00M; for Tmax: read-out: THC plasma tmax, Median
Description: Following the general methods of Example 2, the study design was adjusted such that groups received either (a) THC (21 mg)+placebo or (b) THC (21 mg)+Compound 1 (30 mg) (FIG. 14) or either (a) THC (21 mg)+placebo or (b) THC (21 mg)+Compound 1 (10 mg) (FIG. 15). […] Summary of pharmacokinetics of THC with 30 mg ANEB-001 challenge (FIG. 18A and FIG. 18B), AUC after 5 hours (FIG. 18C), AUC last (FIG. 18D) and Cmax (FIG. 18E).
Summary of pharmacokinetics for 30 mg ANEB-001 and 10 mg ANEB-001 challenge with 21 mg THC administration in plasma (FIGS. 19A and 19B); AUC after 5 hours for 10 mg ANEB-001 and 30 mg ANEB-001 (FIG. 19C), AUC last (FIG. 19D), and Cmax (FIG. 19E).
All PK parameter calculations were based on actual sampling time. For calculation of PK parameters, all BLQ concentrations that were between the first and last non-BLQ values were dropped (treated as ‘missing’). For calculation of AUClast and t1/2, additionally all values that were BLQ after the last non-BLQ value were dropped (treated as missing). If data points for concentrations were missing, the AUC parameters were derived by interpolating with regard to the 2 neighboring non-missing concentrations. AUC was calculated using the log-linear trapezoidal rule.
Reporting of drug concentration data. The concentrations are summarized (mean, SD, % CV, median, Min and Max values) by treatment and time, and are also presented graphically as mean over time, with standard deviation as error bars. For graphical and summary purposes of drug concentrations, values below the limit of quantification (BLQ) are set to zero. The SD and CVT are not reported if the mean is 0.
Reporting of PK parameters. The individual PK parameters (except tmax and tlag) are summarized (mean, SD, CV, geometric mean, geometric CV, median, M in and Max) per treatment group and a selection of the PK parameters are presented graphically as boxplots. For tmax and tlag, the median, Min and Max statistics are reported. Boxplots present the median (horizontal solid line), the 25%-75% distribution (IQR), with 1.5× the IQR as whiskers.

[2] = test system: central nervous system effects of THC; test: Phase 2 randomized, double-blind, placebo-controlled THC challenge study, PD endpoints (10.5 mg THC + 50 or 100 mg Compound 1); format: in vivo, human; conditions: 10.5 mg THC alone (THC/placebo); score of at least 20/100 on VAS feeling high scale
[3] = 21 mg THC + 30 mg ANEB-001, read-out: THC in Plasma (concentration), Mean
[4] = 21 mg THC + 30 mg ANEB-001, read-out: THC in Plasma (concentration), Median
[5] = 21 mg, 21 mg THC + Placebo, read-out: THC in Plasma (concentration), Mean
[6] = 21 mg, 21 mg THC + Placebo, read-out: THC in Plasma (concentration), Median

CCCCCc1cc(O)c2c(c1)OC(C)(C)[C@@H]1CCC(C)=C[C@@H]21 [THC, Δ9-tetrahydrocannabinol]
THC Dose normalized Cmax, GeoMean ([1]; 21 mg THC + 30 mg ANEB-001): 0.4482 ng/mL/mg
THC Dose normalized Cmax, Mean ([1]; 21 mg THC + 30 mg ANEB-001): 0.4658 ng/mL/mg
THC Dose normalized Cmax, Median ([1]; 21 mg THC + 30 mg ANEB-001): 0.442 ng/mL/mg
THC plasma tlag, Median ([1]; 21 mg THC + 30 mg ANEB-001): 0 h
THC Dose normalized Cmax, GeoMean ([1]; 21 mg THC + Placebo): 0.2634 ng/mL/mg
THC Dose normalized Cmax, Mean ([1]; 21 mg THC + Placebo): 0.2965 ng/mL/mg
THC Dose normalized Cmax, Median ([1]; 21 mg THC + Placebo): 0.260 ng/mL/mg
THC plasma AUC5H, Mean ([1]; 21 mg THC + Placebo): 14.6 ng·h/mL
THC plasma tlag, Median ([1]; 21 mg THC + Placebo): 0 h
concentration at 0 h [1, 3]: 0.0163 ng/mL
concentration at 0 h [1, 4]: 0 ng/mL
concentration at 20 min [1, 3]: 4.16 ng/mL
concentration at 20 min [1, 4]: 3.48 ng/mL
concentration at 40 min [1, 3]: 8.94 ng/mL
concentration at 40 min [1, 4]: 8.4 ng/mL
concentration at 1 h [1, 3]: 7.45 ng/mL
concentration at 1 h [1, 4]: 7.31 ng/mL
concentration at 2 h [1, 3]: 4.07 ng/mL
concentration at 2 h [1, 4]: 4.01 ng/mL
concentration at 3 h [1, 3]: 2.46 ng/mL
concentration at 3 h [1, 4]: 2.03 ng/mL
concentration at 4 h [1, 3]: 1.22 ng/mL
concentration at 4 h [1, 4]: 1.28 ng/mL
concentration at 5 h [1, 3]: 0.744 ng/mL
concentration at 5 h [1, 4]: 0.684 ng/mL
concentration at 24 h [1, 3]: 0.0551 ng/mL
concentration at 24 h [1, 4]: 0 ng/mL
AUC(0-t) ([1]; 21 mg THC + 30 mg ANEB-001, read-out: THC plasma AUC5H, GeoMean): 16.3 ng·h/mL
AUC(0-t) ([1]; 21 mg THC + 30 mg ANEB-001, read-out: THC plasma AUC5H, Mean): 17 ng·h/mL
AUC(0-t) ([1]; 21 mg THC + 30 mg ANEB-001, read-out: THC plasma AUC5H, Median): 16.1 ng·h/mL
AUC(0-t) ([1]; 21 mg THC + 30 mg ANEB-001, read-out: THC plasma AUClast, GeoMean): 17.9 ng·h/mL
AUC(0-t) ([1]; 21 mg THC + 30 mg ANEB-001, read-out: THC plasma AUClast, Mean): 19.3 ng·h/mL
AUC(0-t) ([1]; 21 mg THC + 30 mg ANEB-001, read-out: THC plasma AUClast, Median): 18.4 ng·h/mL
Cmax ([1]; 21 mg THC + 30 mg ANEB-001, read-out: THC plasma Cmax, GeoMean): 9.41 ng/mL
Cmax ([1]; 21 mg THC + 30 mg ANEB-001, read-out: THC plasma Cmax, Mean): 9.78 ng/mL
Cmax ([1]; 21 mg THC + 30 mg ANEB-001, read-out: THC plasma Cmax, Median): 9.28 ng/mL
Tmax ([1]; 21 mg THC + 30 mg ANEB-001): 40.2 min
concentration at 0 h [1, 5]: 0 ng/mL
concentration at 0 h [1, 6]: 0 ng/mL
concentration at 20 min [1, 5]: 2.22 ng/mL
concentration at 20 min [1, 6]: 2.01 ng/mL
concentration at 40 min [1, 5]: 6.1 ng/mL
concentration at 40 min [1, 6]: 5.46 ng/mL
concentration at 1 h [1, 5]: 5.78 ng/mL
concentration at 1 h [1, 6]: 5.47 ng/mL
concentration at 2 h [1, 5]: 2.85 ng/mL
concentration at 2 h [1, 6]: 1.86 ng/mL
concentration at 3 h [1, 5]: 3.23 ng/mL
concentration at 3 h [1, 6]: 1.47 ng/mL
concentration at 4 h [1, 5]: 1.66 ng/mL
concentration at 4 h [1, 6]: 0.894 ng/mL
concentration at 5 h [1, 5]: 1.06 ng/mL
concentration at 5 h [1, 6]: 0.456 ng/mL
concentration at 24 h [1, 5]: 0.0206 ng/mL
concentration at 24 h [1, 6]: 0 ng/mL
AUC(0-t) ([1]; 21 mg, 21 mg THC + Placebo, read-out: THC plasma AUC5H, GeoMean): 12 ng·h/mL
AUC(0-t) ([1]; 21 mg, 21 mg THC + Placebo, read-out: THC plasma AUC5H, Median): 9.32 ng·h/mL
AUC(0-t) ([1]; 21 mg, 21 mg THC + Placebo, read-out: THC plasma AUClast, GeoMean): 13 ng·h/mL
AUC(0-t) ([1]; 21 mg, 21 mg THC + Placebo, read-out: THC plasma AUClast, Mean): 18.3 ng·h/mL
AUC(0-t) ([1]; 21 mg, 21 mg THC + Placebo, read-out: THC plasma AUClast, Median): 9.32 ng·h/mL
Cmax ([1]; 21 mg, 21 mg THC + Placebo, read-out: THC plasma Cmax, GeoMean): 5.53 ng/mL
Cmax ([1]; 21 mg, 21 mg THC + Placebo, read-out: THC plasma Cmax, Mean): 6.23 ng/mL
Cmax ([1]; 21 mg, 21 mg THC + Placebo, read-out: THC plasma Cmax, Median): 5.47 ng/mL
Tmax ([1]; 21 mg THC + Placebo): 40.2 min
Proportion of subjects reporting feeling high [2]: 75%
